Laboratory results published in patent publication US20060040298A1, “Rhesus monkey NURR1 nuclear receptor” (priority 2004, published 2006).

Assays:
Format in all cases: cell-based, Macaca mulatta (rhesus monkey)
[1] = molecular target: T1, GR/NURR1 chimera (rat GR DBD fused to rhNURR1 LBD) (UniProt P06536+P43354); assay: GR/NURR1 chimera transactivation of the MMTV-LUC reporter in transfected CHO cells; details: FIG. 6; for NURR1 agonist activity: CHO cells co-transfected with GR/NURR1 chimera and reporter gene expression cassette; for luciferase expression from the MMTV-LUC reporter plasmid: CHO cells, compared to compound F and TOFA
T1 construct: expressed in transfected cells; host or cells: CHO cells, transient transfection of the pSG5 plasmid
Source text: A nucleic acid encoding a chimeric nuclear receptor comprising the rat glucocorticoid receptor (GR) DBD fused to the rhNURR1 LBD was constructed and the nucleic acid inserted downstream of the SV40 promoter in plasmid pSG5. The rat GR DBD consists of about amino acid 1 to about amino acid 505 and the rhNURR1 LBD consists of the amino acid sequence beginning from about amino acid 329 to about amino acid 598 (See FIG. 2). A nucleic acid encoding the rat GR DBD, which consisted of nucleotides 1 to 1583 (and which included the proximal 5′ untranslated sequences), was ligated to the nucleic encoding the rhNURR1 (nucleotides 329 to 1794). At the junction in the fusion protein between amino acid 505 of the rat GR DBD and amino acid 329 of the rhNURR1 LDB there are three extra amino acids, Alanine, Arginine, and Glutamic acid, which are encoded by the oligonucleotide 5′-GCTCGAGAA-3′ (SEQ ID NO:11) which includes an XhoI restriction enyme site.
The chimeric nuclear receptor was constructed by ligating the rat GRDBD encoding nucleotide fragment (nucleotides 1 to 1583) to the rhNURR1 LBD encoding nucleotide fragment (nucleotides 329 to 1794) and then inserting the ligated GRDBD/rhNURR1 LBD nucleotide fragments into the pSG5 plasmid expression vector between the EcoRI and BamHI sites.
A reporter gene expression cassette comprising the MMTV(2xGRE) promoter was constructed as described in Schmidt et al., Mol. Endocrinol. 6(10):1634-41 (1992).
A routine transient transfection assay for identifying agonists of rhNURR1 activity is described. While the transfection uses the FuGENE6 method of Roche Applied Science, Indianapolis, Ind., other transfection methods can be used.
In general, the method consists of plating about 0.8 to 1×10^4 transfected COS-1 or CHO cells per well of 96-well tissue culture plates which are UV and visible light transparent. The media that the cells are plated in is exponential growth medium which consists of phenol red-free DMEM containing 10% fetal bovine serum and 1× penicillin/streptomycin. Incubation conditions are 37° C. and 5% CO2. The transfection is done in batch mode.
For a transfection, the cells are trypsinized and resuspended to about 8×10^4 cells/mL in fresh medium. FuGENE6 is mixed with serum-free medium (for example, OPTIMEM, Invitrogen, Carlsbad, Calif.) at a ratio of 2 to 3. About 0.625 ng of DNA encoding the chimeric receptor of Example 2 and 0.625 ng DNA comprising the MMTV promoter operably linked to the luciferase gene (MMTV-LUC) are added to the FuGENE6 in serum-free medium and the mixture incubated at room temperature for about 20 minutes. The mixture is then added to one mL of the cell suspension and 100 μL aliquots plated to the wells of a 96-well tissue culture plate. Thus, a total ten wells contain cells, each containing about 8,000 cells. About 16 to 24 hours after transfection, for each well, about 1 uL of an analyte in a vehicle such as DMSO is added to the well. At least one well is reserved as a control and receives the vehicle alone. After 24 hours exposure to the analytes, the cells are assayed for luciferase activity. The cells are lysed by a Promega cell culture lysis buffer for approximately 30 min and then the luciferase activity in the extracts is assayed in the 96-well format liminometer (MICROBETA JET 1450, Perkin Elmer, Boston, Mass.). Results are calculated as fold induction of compound treated cells over control treated cells.
The CHO cells were transfected as in Example 3. […]

[2] = molecular target: T2, GR/NURR1 chimera receptor (NURR1 LBD) (UniProt P06536+P43354); assay: Relative transactivation of GR/NURR1 chimera receptor versus GR/PPARα chimeric receptor, MMTV-luciferase reporter; details: test analytes at 0, 1, 10, and 30 μM in DMSO; FIG. 7
T2 construct: expressed in transfected cells
Experimental: The relative transactivation of GR/NURR1 chimera receptor in response to a panel of test analytes was determined.
To further verify the selective NURR1 LBD-compound interactions, the same compounds were added to cells that had been co-transfected with the MMTV-luciferase reporter gene expression cassette and a gene expression cassette comprising DNA encoding either the chimeric receptor GR/NURR1 or a chimeric GR/PPARα receptor under conditions similar to those in Example 5.
Expression vector 3GR/PPARα contained the chimeric GR/PPARα receptor in which DNA encoding the DNA binding domain of GR was fused to the ligand binding domain of mouse PPARα was inserted into plasmid pSG5 (See Boie et al., J. Biol. Chem. 268: 5530-[…] (1993)).
Then, aliquots of the transfected cells were treated with test analytes at 0, 1, 10, and 30 μM concentrations in DMSO. The test analytes included Bicalutamide, Lovastatin, ZOCOR, and various SARM compounds. The results are shown in FIG. 7 and are expressed as a relative activity in which the activity at each concentration that was obtained with the extracts from the cells cotransfected with GR/NURR1 was divided by the corresponding activity that was obtained from extracts from the cells cotransfected with GR/PPARα. Other chimeric receptors other than GR/PPARα can be used. […]

[3] = molecular target: T2, GR/NURR1 chimera receptor (NURR1 LBD); assay: Relative transactivation of GR/NURR1 chimera receptor versus GR/LXRβ chimeric receptor, MMTV-luciferase reporter; details: test analytes at 0, 1, 10, and 30 μM in DMSO; 48 hours post-transfection; FIG. 8
Experimental: Relative transactivation of GR/NURR1 chimera receptor in response to a panel of test analytes was determined.
An MMTV-luciferase reporter gene expression cassette was cotransfected with a gene expression cassette comprising DNA encoding either the chimeric receptor GR/NURR1 or a chimeric receptor comprising GR/LXRβ under transfection conditions similar to those in Example 3.
Expression vector GR/LXRβ was prepared in a similar manner to the GR/PPARα chimeric receptor in Example 5. […]
The next day, the transfected cells were washed and then refed with the appropriate medium containing 5% activated charcoal-stripped serum. […] The results are shown in FIG. 8 and are expressed as a relative activity in which the activity at each concentration that was obtained with cells transfected with the GR/NURR1 was divided by the corresponding activity that was obtained from cells cotransfected with the GR/LXRβ. […]

T1 sequence (P06536+P43354 fused, change not shown): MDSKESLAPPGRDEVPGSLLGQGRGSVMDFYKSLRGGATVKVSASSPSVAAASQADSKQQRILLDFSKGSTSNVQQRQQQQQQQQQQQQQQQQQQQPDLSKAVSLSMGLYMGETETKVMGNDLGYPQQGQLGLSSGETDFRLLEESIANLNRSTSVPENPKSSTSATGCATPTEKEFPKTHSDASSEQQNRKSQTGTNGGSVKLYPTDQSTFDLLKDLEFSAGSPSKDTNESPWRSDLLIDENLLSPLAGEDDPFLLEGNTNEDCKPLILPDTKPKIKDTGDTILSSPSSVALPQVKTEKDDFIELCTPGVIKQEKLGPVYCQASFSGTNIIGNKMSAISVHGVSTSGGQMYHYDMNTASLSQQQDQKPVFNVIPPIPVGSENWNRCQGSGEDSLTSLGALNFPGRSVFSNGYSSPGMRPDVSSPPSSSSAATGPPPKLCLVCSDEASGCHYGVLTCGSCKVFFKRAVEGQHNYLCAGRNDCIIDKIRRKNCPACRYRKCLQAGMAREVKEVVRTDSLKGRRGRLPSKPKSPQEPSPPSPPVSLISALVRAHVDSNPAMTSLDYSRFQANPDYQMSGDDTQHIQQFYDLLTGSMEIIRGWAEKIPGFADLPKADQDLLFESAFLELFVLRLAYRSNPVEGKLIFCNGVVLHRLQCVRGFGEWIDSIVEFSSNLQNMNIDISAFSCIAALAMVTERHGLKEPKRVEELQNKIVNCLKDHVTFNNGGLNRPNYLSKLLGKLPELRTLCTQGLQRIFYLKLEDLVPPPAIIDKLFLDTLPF
T2 sequence (P06536+P43354 fused, change not shown): as above

NURR1 agonist activity [1]	luciferase expression from the MMTV-LUC reporter plasmid [1]	relative activity (GR/NURR1 activity divided by GR/PPARα activity) [2]	relative activity (GR/NURR1 activity divided by GR/LXRβ activity) [3]	SMILES
NURR1 agonists				CCCCCCCCCCCCCCOc1ccc(C(=O)O)o1 [TOFA, 5-(tetradecyloxy)-2-furoic acid]
NURR1 agonists	increase in luciferase expression	increase in activity	increase in activity	CC[C@H](C)C(=O)O[C@H]1C[C@@H](C)C=C2C=C[C@H](C)[C@H](CC[C@@H]3C[C@@H](O)CC(=O)O3)[C@H]21 [Lovastatin]
NURR1 agonists	increase in luciferase expression	increase in activity	increase in activity	CCC(C)(C)C(=O)O[C@H]1C[C@@H](C)C=C2C=C[C@H](C)[C@H](CC[C@@H]3C[C@@H](O)CC(=O)O3)[C@H]21 [ZOCOR]
